Source: patent publication US4636490A, “Novel peptidic derivatives inhibiting gastric secretion, process for preparing them and drugs containing them” (Sanofi, priority 1983, dated 1987)
Residues, ends and D or L forms follow the SMILES beside them. *: point of attachment. Cbz = O=C(OCc1ccccc1)*; Boc = CC(C)(C)OC(=O)*

Columns and labels:
gastric secretion = assay: Agonist effect: gastric secretory effect of the peptide administered alone i.v., stomach of a reperfused, anaesthetized rat; type: in vivo; conditions: anaesthetized male Wistar rat
Excerpt: (§1) The compounds according to the invention were studied as far as their therapeutical properties are concerned. More particularly, these compounds were studied in vivo as far as their gastric secretory effect in the rat is concerned. The model chosen for measuring the secretory effect is that of the stomach of a reperfused, anaesthetized rat. The protocol followed is a modification of the one described previously by Ghosh and Schild. A male rat of Wistar strain, weighing 300 g, having fasted for 18 hours, is anaesthetized with urethane (10% solution, 1.5 ml/100 g i.p.). A tracheotomy is then made, as well as a catheterism of the vein of the penis which will allow i.v. administration of the peptides. A cannula is then placed in the oesophagus up to the cardiac orifice and a second cannula in the duodenum (by a duodenotomy made about 3 cm from the pylorus) up to the antral gastric zone. A propionic-succinic solute (pH 5.5) which gives a linear variation of the pH as a function of the concentration of H^+ ions is used for perfusing the stomach in open or closed circuit with a flow rate of 3 ml/min. The body temperature, as well as that of the solute, is monitored and maintained at 30° C. The acid secretion of the stomach will bring about a variation in pH detected by the glass half-cell and recorded as a function of time. After stabilization of the basal secretion, gastrin is injected by the intravenous route, either in perfusion or in a single injection. The response is recorded as a function of time and the quantity of acid secretion is measured on the recording by difference with the basal secretion. The same experiment is carried out either by injecting the peptide to be studied i.v. on a plateau of acid secretion stimulated by the gastrin, or by associating the peptide with the stimulant in variable ratios of concentration. Finally, the peptide is administered alone at different doses in order to examine its agonist effect.

[1] = test system: gastric secretion stimulated by the gastrin; assay: Antagonist effect: inhibition of gastrin (minigastrin)-stimulated acid secretion, stomach of a reperfused, anaesthetized rat; type: in vivo
Excerpt: as §1

[2] = agonist minigastrin 0.6 μg/kg (single), dose of antagonist 1.5 mg/kg i.v.

Molecule | Secretary effect (40 mins.) (gastric secretion; dose 5000 μg/kg) [μmol H^+] | Inhibiting effect (%) ([1]; agonist minigastrin 0.6 μg/kg (single), dose of antagonist 1.2 mg/kg i.v.) | Secretary effect (40 mins.) (gastric secretion; dose 10000 μg/kg) [μmol H^+] | Inhibiting effect (%) [1, 2] [%] | Secretary effect (40 mins.) (gastric secretion; dose 1000 μg/kg) [μmol H^+] | Inhibiting effect (%) ([1]; agonist minigastrin 1.5 μg/kg/hr (perfusion), dose of antagonist 1.5 mg/kg i.v.)
CSCC[C@H](NC(=O)[C@H](Cc1c[nH]c2ccccc12)NC(=O)CNC(=O)[C@H](Cc1ccc(O)cc1)NC(=O)OC(C)(C)C)C(=O)N[C@@H](CC(=O)O)C(N)=O [Example 4, Boc--Tyr--Gly--Trp--Met--Asp--NH2] (Boc-YGWMD-NH2) | 0.1 | 50.4 |  |  |  | 
CSCC[C@H](NC(=O)[C@H](Cc1c[nH]c2ccccc12)NC(=O)CNC(=O)[C@H](Cc1ccc(O)cc1)NC(=O)[C@H](C)NC(=O)[C@H](CCC(=O)O)NC(=O)OCc1ccccc1)C(=O)N[C@@H](CC(=O)O)C(N)=O [Example 5, Z--Glu--Ala--Tyr--Gly--Trp--Met--Asp--NH2] (Cbz-EAYGWMD-NH2) |  |  | 0 | 50 |  | 
Z--Tyr(HSO3)--Met--Gly--Trp--Met--Asp--NH2 [Example 3] |  |  |  | 47 | 0.15 | 47.4
